In the kinase profiling compilation of Christmann-Franck et al. (2016):

How the values were obtained:
Assay in all cases: KINOMEscan competition binding
Settings in all cases: compound 10.0 µM
[1] = biological target: FES (human) (UniProt P07332)
[2] = biological target: CDC42BPG (human) (UniProt Q6DT37)
[3] = biological target: RIPK2 (human) (UniProt O43353)
[4] = biological target: LATS2 (human) (UniProt Q9NRM7)
[5] = biological target: TNNI3K (human) (UniProt Q59H18)
[6] = biological target: BMPR1A (human) (UniProt P36894)
[7] = biological target: CLK2 (human) (UniProt P49760)
[8] = biological target: CDC2L2 (human) (UniProt Q9UQ88)
[9] = biological target: CHEK1 (human) (UniProt O14757)
[10] = biological target: CSNK1E (human) (UniProt P49674)
[11] = biological target: ULK3 (human) (UniProt Q6PHR2)
[12] = biological target: STK10 (human) (UniProt O94804)
[13] = biological target: GAK (human) (UniProt O14976)
[14] = biological target: RPS6KA3 KD1 (human) (UniProt P51812)
[15] = biological target: STK25 (human) (UniProt O00506)
[16] = biological target: FGFR4 (human) (UniProt P22455)
[17] = biological target: MAPKAPK2 (human) (UniProt P49137)
[18] = biological target: SIK1 (human) (UniProt P57059)
[19] = biological target: CDK5 (human) (UniProt Q00535)
[20] = biological target: CAMK4 (human) (UniProt Q16566)
[21] = biological target: CDK3 (human) (UniProt Q00526)
[22] = biological target: TAOK1 (human) (UniProt Q7L7X3)
[23] = biological target: CIT (human) (UniProt O14578)
[24] = biological target: NEK6 (human) (UniProt Q9HC98)
[25] = biological target: MAP4K2 (human) (UniProt Q12851)
[26] = biological target: PRKACB (human) (UniProt P22694)
[27] = biological target: NEK2 (human) (UniProt P51955)
[28] = biological target: ADCK3 (human) (UniProt Q8NI60)
[29] = biological target: RIPK4 (human) (UniProt P57078)
[30] = biological target: RPS6KA6 KD2 (human) (UniProt Q9UK32)
[31] = biological target: CAMK2B (human) (UniProt Q13554)
[32] = biological target: EPHB1 (human) (UniProt P54762)
[33] = biological target: CDKL2 (human) (UniProt Q92772)
[34] = biological target: ULK2 (human) (UniProt Q8IYT8)
[35] = biological target: TSSK1B (human) (UniProt Q9BXA7)
[36] = biological target: FLT4 (human) (UniProt P35916)
[37] = biological target: NEK1 (human) (UniProt Q96PY6)
[38] = biological target: CLK3 (human) (UniProt P49761)
[39] = biological target: PIM1 (human) (UniProt P11309)
[40] = biological target: TNIK (human) (UniProt Q9UKE5)

ADCK3 (human), sequence (Q8NI60 whole entry, looked up): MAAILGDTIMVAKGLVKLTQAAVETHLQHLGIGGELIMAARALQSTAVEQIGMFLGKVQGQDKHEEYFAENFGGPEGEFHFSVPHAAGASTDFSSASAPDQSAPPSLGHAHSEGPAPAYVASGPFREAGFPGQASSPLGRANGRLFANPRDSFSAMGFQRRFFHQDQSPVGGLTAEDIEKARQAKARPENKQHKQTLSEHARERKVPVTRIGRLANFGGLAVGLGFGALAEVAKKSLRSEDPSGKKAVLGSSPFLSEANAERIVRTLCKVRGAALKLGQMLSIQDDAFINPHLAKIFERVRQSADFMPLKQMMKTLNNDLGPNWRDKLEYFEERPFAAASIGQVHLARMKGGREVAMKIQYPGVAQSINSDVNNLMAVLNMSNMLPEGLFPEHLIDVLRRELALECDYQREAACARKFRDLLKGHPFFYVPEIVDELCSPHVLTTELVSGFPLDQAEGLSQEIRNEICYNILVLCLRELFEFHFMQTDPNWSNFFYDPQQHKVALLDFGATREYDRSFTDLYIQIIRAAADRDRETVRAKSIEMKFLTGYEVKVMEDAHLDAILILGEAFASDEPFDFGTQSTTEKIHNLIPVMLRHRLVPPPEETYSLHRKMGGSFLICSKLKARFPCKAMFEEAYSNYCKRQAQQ
CIT (human), sequence (O14578 whole entry, looked up): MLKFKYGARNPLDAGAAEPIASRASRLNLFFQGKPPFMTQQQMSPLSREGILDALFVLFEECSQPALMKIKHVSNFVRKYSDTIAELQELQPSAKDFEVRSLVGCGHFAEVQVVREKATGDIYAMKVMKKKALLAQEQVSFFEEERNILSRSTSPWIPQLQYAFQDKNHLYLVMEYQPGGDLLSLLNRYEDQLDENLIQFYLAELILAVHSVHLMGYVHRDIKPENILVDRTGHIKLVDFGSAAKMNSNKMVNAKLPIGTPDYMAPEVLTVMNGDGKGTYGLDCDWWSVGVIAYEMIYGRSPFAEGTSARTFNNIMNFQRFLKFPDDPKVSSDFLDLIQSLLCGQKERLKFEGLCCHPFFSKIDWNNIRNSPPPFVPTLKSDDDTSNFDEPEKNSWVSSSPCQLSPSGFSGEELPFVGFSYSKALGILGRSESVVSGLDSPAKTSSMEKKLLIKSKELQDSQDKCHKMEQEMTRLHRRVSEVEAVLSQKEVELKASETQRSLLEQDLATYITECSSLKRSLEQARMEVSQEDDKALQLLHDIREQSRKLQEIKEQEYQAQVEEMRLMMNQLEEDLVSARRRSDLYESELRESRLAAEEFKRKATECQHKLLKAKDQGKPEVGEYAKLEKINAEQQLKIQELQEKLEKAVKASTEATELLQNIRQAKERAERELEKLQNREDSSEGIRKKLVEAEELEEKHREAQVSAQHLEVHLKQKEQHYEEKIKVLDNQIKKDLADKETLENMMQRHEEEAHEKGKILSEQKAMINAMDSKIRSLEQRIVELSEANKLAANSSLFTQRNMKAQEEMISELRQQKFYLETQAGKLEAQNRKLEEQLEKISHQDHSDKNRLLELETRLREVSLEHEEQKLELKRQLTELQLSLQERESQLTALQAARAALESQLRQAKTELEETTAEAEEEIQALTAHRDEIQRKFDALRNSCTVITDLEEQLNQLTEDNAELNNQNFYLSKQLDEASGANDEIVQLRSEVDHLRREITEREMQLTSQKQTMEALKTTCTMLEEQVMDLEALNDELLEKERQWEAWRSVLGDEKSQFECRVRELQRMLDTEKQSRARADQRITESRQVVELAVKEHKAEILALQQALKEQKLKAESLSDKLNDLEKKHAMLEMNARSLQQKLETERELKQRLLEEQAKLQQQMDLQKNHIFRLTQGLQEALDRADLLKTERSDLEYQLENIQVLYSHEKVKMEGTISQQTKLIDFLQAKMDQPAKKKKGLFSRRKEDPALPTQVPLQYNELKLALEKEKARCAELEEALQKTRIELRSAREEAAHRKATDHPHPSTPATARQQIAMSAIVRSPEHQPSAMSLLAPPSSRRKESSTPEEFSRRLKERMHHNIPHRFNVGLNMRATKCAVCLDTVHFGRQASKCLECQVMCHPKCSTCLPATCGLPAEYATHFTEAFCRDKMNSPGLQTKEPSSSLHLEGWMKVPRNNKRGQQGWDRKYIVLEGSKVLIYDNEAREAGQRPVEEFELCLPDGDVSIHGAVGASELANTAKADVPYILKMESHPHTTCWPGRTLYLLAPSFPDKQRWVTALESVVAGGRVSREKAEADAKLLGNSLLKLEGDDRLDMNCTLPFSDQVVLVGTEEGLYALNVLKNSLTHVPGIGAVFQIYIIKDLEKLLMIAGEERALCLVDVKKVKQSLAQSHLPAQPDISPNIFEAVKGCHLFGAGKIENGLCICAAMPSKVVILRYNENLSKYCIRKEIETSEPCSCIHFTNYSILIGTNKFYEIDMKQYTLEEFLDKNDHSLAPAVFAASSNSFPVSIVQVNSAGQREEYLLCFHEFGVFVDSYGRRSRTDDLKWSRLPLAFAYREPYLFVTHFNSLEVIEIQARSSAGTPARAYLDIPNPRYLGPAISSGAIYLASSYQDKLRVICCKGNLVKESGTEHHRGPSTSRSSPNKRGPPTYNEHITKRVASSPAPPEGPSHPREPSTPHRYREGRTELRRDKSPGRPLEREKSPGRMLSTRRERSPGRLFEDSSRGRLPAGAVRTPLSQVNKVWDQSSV
PIM1 (human), sequence (P11309 whole entry, looked up): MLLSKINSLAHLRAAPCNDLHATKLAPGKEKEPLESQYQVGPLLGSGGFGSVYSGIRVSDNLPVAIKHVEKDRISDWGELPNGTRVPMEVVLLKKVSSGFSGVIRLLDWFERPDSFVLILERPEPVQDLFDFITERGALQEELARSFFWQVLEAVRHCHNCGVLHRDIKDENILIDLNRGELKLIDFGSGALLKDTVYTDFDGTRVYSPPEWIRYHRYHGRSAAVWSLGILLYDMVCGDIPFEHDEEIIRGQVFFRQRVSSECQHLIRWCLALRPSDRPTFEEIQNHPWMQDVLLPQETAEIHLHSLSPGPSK
LATS2 (human), sequence (Q9NRM7 whole entry, looked up): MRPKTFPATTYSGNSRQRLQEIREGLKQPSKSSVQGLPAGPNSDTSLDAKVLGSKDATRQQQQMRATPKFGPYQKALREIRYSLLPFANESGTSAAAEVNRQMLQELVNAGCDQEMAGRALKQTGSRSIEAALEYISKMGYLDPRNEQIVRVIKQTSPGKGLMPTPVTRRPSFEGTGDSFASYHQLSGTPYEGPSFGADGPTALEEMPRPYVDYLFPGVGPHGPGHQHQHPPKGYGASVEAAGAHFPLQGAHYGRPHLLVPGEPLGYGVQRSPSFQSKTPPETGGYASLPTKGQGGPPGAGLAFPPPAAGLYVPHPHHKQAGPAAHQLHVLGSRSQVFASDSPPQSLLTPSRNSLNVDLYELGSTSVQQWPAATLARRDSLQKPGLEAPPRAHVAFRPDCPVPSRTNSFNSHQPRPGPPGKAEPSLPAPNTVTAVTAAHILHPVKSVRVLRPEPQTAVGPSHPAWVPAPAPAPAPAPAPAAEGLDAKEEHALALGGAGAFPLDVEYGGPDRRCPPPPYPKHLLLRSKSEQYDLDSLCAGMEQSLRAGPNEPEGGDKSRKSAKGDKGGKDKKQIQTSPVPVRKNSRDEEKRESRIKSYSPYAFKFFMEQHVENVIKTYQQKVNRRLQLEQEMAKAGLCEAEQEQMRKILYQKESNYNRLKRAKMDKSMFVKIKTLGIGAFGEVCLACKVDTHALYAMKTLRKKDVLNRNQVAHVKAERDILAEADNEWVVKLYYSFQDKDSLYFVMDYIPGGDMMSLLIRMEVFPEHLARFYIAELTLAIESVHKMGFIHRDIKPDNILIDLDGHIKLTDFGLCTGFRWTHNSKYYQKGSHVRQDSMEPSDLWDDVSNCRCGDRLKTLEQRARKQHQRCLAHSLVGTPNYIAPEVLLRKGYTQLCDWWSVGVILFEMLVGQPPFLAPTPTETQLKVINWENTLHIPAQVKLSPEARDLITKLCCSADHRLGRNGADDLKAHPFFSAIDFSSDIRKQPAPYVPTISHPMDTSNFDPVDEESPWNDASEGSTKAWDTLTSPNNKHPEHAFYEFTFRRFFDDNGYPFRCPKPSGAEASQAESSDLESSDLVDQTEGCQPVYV
CAMK4 (human), sequence (Q16566 whole entry, looked up): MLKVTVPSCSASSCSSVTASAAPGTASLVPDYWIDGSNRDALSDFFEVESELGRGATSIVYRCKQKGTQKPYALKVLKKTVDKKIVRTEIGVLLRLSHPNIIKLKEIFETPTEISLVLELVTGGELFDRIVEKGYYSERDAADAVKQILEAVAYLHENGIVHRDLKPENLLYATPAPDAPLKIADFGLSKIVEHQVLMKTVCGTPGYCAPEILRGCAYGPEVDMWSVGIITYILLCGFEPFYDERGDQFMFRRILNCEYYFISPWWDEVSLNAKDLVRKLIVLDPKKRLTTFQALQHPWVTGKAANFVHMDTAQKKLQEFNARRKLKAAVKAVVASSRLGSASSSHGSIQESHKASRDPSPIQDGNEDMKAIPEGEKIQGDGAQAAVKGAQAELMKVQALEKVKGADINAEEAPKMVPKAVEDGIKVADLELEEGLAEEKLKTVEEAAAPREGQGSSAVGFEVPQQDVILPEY
CDKL2 (human), sequence (Q92772 whole entry, looked up): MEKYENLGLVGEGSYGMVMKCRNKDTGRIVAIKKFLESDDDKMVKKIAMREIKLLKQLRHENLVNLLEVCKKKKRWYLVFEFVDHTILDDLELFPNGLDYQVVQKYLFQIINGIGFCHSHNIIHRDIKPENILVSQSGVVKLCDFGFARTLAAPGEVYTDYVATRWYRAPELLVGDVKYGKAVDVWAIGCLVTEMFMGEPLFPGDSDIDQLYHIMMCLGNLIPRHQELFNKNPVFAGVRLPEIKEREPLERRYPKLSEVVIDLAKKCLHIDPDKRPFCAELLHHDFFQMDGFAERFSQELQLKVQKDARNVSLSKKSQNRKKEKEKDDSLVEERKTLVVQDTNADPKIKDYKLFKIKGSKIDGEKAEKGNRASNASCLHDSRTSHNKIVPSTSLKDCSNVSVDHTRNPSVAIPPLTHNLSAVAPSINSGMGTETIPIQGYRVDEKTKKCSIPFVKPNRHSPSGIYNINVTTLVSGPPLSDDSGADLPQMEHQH

SMILES	kinase still bound, per cent of control [1]	kinase still bound, per cent of control [2]	kinase still bound, per cent of control [3]	kinase still bound, per cent of control [4]	kinase still bound, per cent of control [5]	kinase still bound, per cent of control [6]	kinase still bound, per cent of control [7]	kinase still bound, per cent of control [8]	kinase still bound, per cent of control [9]	kinase still bound, per cent of control [10]	kinase still bound, per cent of control [11]	kinase still bound, per cent of control [12]	kinase still bound, per cent of control [13]	kinase still bound, per cent of control [14]	kinase still bound, per cent of control [15]	kinase still bound, per cent of control [16]	kinase still bound, per cent of control [17]	kinase still bound, per cent of control [18]	kinase still bound, per cent of control [19]	kinase still bound, per cent of control [20]	further results
CN(C)C/C=C/C(=O)Nc1cccc(Nc2ncc3c(n2)N(C)c2ccccc2C(=O)N3C)c1	67%	100%	18%	97%	28%	0.65%	41%	100%	8.5%	75%	45%	30%	13%	29%	66%	22%	100%	2.7%	100%	100%	kinase still bound, per cent of control [21]: 100%; kinase still bound, per cent of control [22]: 0.15%; kinase still bound, per cent of control [23]: 86%; kinase still bound, per cent of control [24]: 73%; kinase still bound, per cent of control [25]: 13%; kinase still bound, per cent of control [26]: 100%; kinase still bound, per cent of control [27]: 62%; kinase still bound, per cent of control [28]: 74%; kinase still bound, per cent of control [29]: 1%; kinase still bound, per cent of control [30]: 0.6%; kinase still bound, per cent of control [31]: 40%; kinase still bound, per cent of control [32]: 90%; kinase still bound, per cent of control [33]: 92%; kinase still bound, per cent of control [34]: 0.2%; kinase still bound, per cent of control [35]: 53%; kinase still bound, per cent of control [36]: 100%; kinase still bound, per cent of control [37]: 69%; kinase still bound, per cent of control [38]: 82%; kinase still bound, per cent of control [39]: 66%; kinase still bound, per cent of control [40]: 29%
Cc1ccc2nc(NCCN)c3ncc(C)n3c2c1	100%	94%	100%	100%	100%	32%	54%	1%	91%	58%	76%	100%	79%	100%	79%	100%	100%	100%	100%	100%	kinase still bound, per cent of control [21]: 100%; kinase still bound, per cent of control [22]: 66%; kinase still bound, per cent of control [23]: 100%; kinase still bound, per cent of control [24]: 100%; kinase still bound, per cent of control [25]: 92%; kinase still bound, per cent of control [26]: 100%; kinase still bound, per cent of control [27]: 100%; kinase still bound, per cent of control [28]: 61%; kinase still bound, per cent of control [29]: 100%; kinase still bound, per cent of control [30]: 40%; kinase still bound, per cent of control [31]: 73%; kinase still bound, per cent of control [32]: 100%; kinase still bound, per cent of control [33]: 82%; kinase still bound, per cent of control [34]: 100%; kinase still bound, per cent of control [35]: 100%; kinase still bound, per cent of control [36]: 100%; kinase still bound, per cent of control [37]: 78%; kinase still bound, per cent of control [38]: 47%; kinase still bound, per cent of control [39]: 100%; kinase still bound, per cent of control [40]: 100%
O=C(O)c1ccc(Nc2ncc3c(n2)-c2ccc(Cl)cc2C(c2c(F)cccc2F)=NC3)cc1	100%	92%	97%	72%	85%	36%	7.4%	100%	91%	100%	57%	6.7%	49%	28%	56%	58%	100%	5.7%	100%	66%	kinase still bound, per cent of control [21]: 100%; kinase still bound, per cent of control [22]: 71%; kinase still bound, per cent of control [23]: 37%; kinase still bound, per cent of control [24]: 100%; kinase still bound, per cent of control [25]: 88%; kinase still bound, per cent of control [26]: 58%; kinase still bound, per cent of control [27]: 73%; kinase still bound, per cent of control [28]: 88%; kinase still bound, per cent of control [29]: 100%; kinase still bound, per cent of control [30]: 58%; kinase still bound, per cent of control [31]: 71%; kinase still bound, per cent of control [32]: 2.2%; kinase still bound, per cent of control [33]: 86%; kinase still bound, per cent of control [34]: 100%; kinase still bound, per cent of control [35]: 90%; kinase still bound, per cent of control [36]: 18%; kinase still bound, per cent of control [37]: 56%; kinase still bound, per cent of control [38]: 14%; kinase still bound, per cent of control [39]: 71%; kinase still bound, per cent of control [40]: 61%
